From patent US20150290192A1, “INHIBITORS OF BRUTON'S TYROSINE KINASE” (HOFFMANN-LA ROCHE INC., priority 2012, published 2015)
pIC50: −log10 of the molar value. Marks after values point to notes of the source that are not given here.

What was measured:
[1] = test system: OVA sensitized and challenged mice, allergen-induced bronchoconstriction; test: Ovalbumin-induced allergic airway disease: allergen-induced bronchoconstriction
[2] = Pharmacokinetics in mouse; format: in vivo
Bruton's Tyrosine Kinase = Bruton's Tyrosine Kinase (Homo sapiens, UniProt Q06187); test: Bruton's Tyrosine Kinase (BTK) inhibition TR-FRET competition assay; format: binding
Chain of Bruton's Tyrosine Kinase (Q06187 whole entry): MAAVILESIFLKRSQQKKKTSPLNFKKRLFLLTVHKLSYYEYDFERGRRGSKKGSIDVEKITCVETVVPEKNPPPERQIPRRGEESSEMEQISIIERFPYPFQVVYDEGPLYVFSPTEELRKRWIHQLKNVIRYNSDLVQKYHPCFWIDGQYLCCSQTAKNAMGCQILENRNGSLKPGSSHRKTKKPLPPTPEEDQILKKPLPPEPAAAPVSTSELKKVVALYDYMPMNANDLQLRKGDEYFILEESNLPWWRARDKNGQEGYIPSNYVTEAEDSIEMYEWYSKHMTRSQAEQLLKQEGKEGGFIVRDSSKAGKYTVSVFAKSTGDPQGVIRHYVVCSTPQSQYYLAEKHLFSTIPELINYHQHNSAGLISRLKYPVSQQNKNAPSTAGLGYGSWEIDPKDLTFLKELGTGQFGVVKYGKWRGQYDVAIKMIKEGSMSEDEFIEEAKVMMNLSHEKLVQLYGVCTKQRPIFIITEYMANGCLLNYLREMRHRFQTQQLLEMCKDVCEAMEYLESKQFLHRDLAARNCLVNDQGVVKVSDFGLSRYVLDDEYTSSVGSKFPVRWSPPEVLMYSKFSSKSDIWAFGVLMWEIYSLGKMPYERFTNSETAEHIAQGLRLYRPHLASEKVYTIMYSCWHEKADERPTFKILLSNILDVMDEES
Protocol: This BTK competition assay measures compound potency (IC50) for the inactivated state of Bruton's Tyrosine Kinase using FRET (Firster/Fluorescence Resonance Energy Transfer) technology. The BTK-Eu complex was incubated on ice one hour prior to use at a starting concentration of 50 nM BTK-Bioease™: 10 nM Eu-streptavidin (Perkin-Elmer Catalog#AD0062). The assay buffer consisted of 20 mM HEPES (pH 7.15), 0.1 mM DTT, 10 mM MgCl2, 0.5 mg/ml BSA with 3% Kinase Stabilizer (Fremont Biosolutions, Catalog #STB-K02). After 1 h, the reaction mixture from above was diluted 10 fold in assay buffer to make 5 nM BTK: InM Eu-Streptavidin complex (donor fluorophore). 18 l of a mixture of 0.11 nM BTK-Eu and 0.11 nM Kinase Tracer 178 (Invitrogen, Catalog #PV5593,) with BTK-Eu alone as no negative control, was then dispensed into 384-well flat bottom plates (Greiner, 784076). Compounds to be tested in assay were prepared as 10× concentrations and serial dilution in half-log increments was performed in DMSO so as to generate 10 point curves. To initiate the FRET reaction, compounds prepared as 10× stock in DMSO was added to the plates and the plates were incubated 18-24 h at 14° C.
After the incubation the plates were read on a BMG Pherastar Fluorescent plate reader (or equivalent) and used to measure the emission energy from the europium donor fluorophore (620 nm emission) and the FRET (665 nm emission). The negative control well values were averaged to obtain the mean minimum. The positive “no inhibitor” control wells were averaged to obtain the mean maximum. Percent of maximal FRET was calculated using following equation:
% max FRET=100×[(FSRcmpd−FSRmean min)/(FSRmean max−FSRmean min)]
where FSR=FRET Signal ratio. % Max FRET curves were plotted in Activity Base (Excel) and the IC50(%), hill slope, z′ and % CV were determined. The mean IC50 and standard deviation will be derived from duplicate curves (singlet inhibition curves from two independent dilutions) using Microsoft Excel.

Pharmacokinetics in rat = format: in vivo
[3] = Micronization: particle size and polymorphic form; format: physicochemical
Protocol: 10.6 g of compound 1 was micronized in a Jet-O-Mizer jet mill at feed and grinding pressures of 90 psi. The micronized material thus obtained was analyzed by powder X-ray diffraction pattern and particle size distribution as shown in FIGS. 1 and 2 respectively. No change in polymorphic form was observed during the micronization process. Eighty percent of the particles were of size 5 μm or less with a mean particle size (d50%=2.88 μm) in the range suitable for inhalation delivery. The material was used for the in vivo experiment mOVA36.
8.6 g of 2-(6-tert-butyl-8-fluoro-1-oxophthalazin-2(1H)-yl)-4-(1-methyl-5-(5-(1-methylpiperidin-4-yl)pyridin-2-ylamino)-6-oxo-1,6-dihydropyridazin-3-yl)nicotinaldehyde was micronized in a Jet-O-Mizer jet mill at 80 psi. The mean particle size (d50%) was 3.05 μm with 90% particles ≦6 μm (FIG. 3). This material (30% w/w) and lactose (Lactohale LH 300, 70% w/w) were mixed in a Turbula mixer at 22 rpm for 15 minutes. The d50% and d90% particle size of the lactose ingredient were <5 μm and <10 μm, respectively (DFE Pharma specifications (#001/October 2011). The blend thus obtained was used for the in vivo experiment mOVA40, mPolylC-3-12 and mPolylC-5-12. See FIG. 3.

For `CN1CCC(c2ccc(Nc3cc(-c4ccnc(-n5ncc6cc(C(C)(C)C)cc(F)c6c5=O)c4CO)nn(C)c3=O)nc2)CC1` [Compound 1, 6-tert-Butyl-8-fluoro-2-{3-hydroxymethyl-4-[1-methyl-5-(1′-methyl-1′,2′,3′,4′,5′,6′-hexahydro-[3,4′]bipyridinyl-6-ylamino)-6-oxo-1,6-dihydro-pyridazin-3-yl]-pyridin-2-yl}-2H-phthalazin-1-one], the “% reduction in airway resistance (R)” value ([1]; Inhaled, delivered dose 1.0 mg/kg, deposited dose 0.03 mg/kg, mOVA36) was 44%, the “% reduction in airway resistance (R)” value ([1]; Inhaled, delivered dose 2.7 mg/kg, deposited dose 0.1 mg/kg, mOVA36) was 59* % and the “% reduction in airway resistance (R)” value ([1]; Inhaled, delivered dose 8.6 mg/kg, deposited dose 0.3 mg/kg, mOVA36) was 86* %. The “% reduction in airway resistance (R)” value ([1]; Intranasal, delivered dose 0.3 mg/kg, deposited dose 0.3 mg/kg) was 85* %, the “OVA-induced increase in R” value ([1]; administered i.n. or delivered as a dry powder formulation by inhalation) was “effectively inhibited” and the CL ([2]; 1.0 mg/kg (iv)) was “moderate”. For the same molecule, the “Oral Bioavailability” value ([2]; 1.0 (iv), 10 (po) mg/kg) was “low”, the clearance ([2]; plasma, 1.0 mg/kg (iv)) was 26 mL/min/kg and the bioavailability ([2]; plasma, 10 mg/kg, 1.0 (iv), 10 (po) mg/kg) was 12%. The “Btk inhibitor potency (FRET)” value (Bruton's Tyrosine Kinase) was “very potent”, the pIC50 (Bruton's Tyrosine Kinase; inactivated state of BTK, 18-24 h at 14° C.) was 9.40 and the CL (Pharmacokinetics in rat; 1.0 mg/kg (iv)) was “high”. The “Oral Bioavailability” value (Pharmacokinetics in rat; 1.0 (iv), 2.0 (po) mg/kg) was “low”, the clearance (Pharmacokinetics in rat; plasma, 1.0 mg/kg (iv)) was 75.8 mL/min/kg and the bioavailability (Pharmacokinetics in rat; plasma, 2 mg/kg, 1.0 (iv), 2.0 (po) mg/kg) was 2%. The “particle size of 90% particles” value ([3]; micronized at 80 psi, material for mOVA40 and mPolyIC) was at most 6 μm, the “particles of size 5 μm or less” value ([3]; micronized at 90 psi, material for mOVA36) was “Eighty” and the “mean particle size (d50%)” value ([3]; micronized in Jet-O-Mizer jet mill at 80 psi, material for mOVA40 and mPolyIC) was 3.05 μm. The “mean particle size (d50%)” value ([3]; micronized in Jet-O-Mizer jet mill at 90 psi, material for mOVA36) was 2.88 μm and the “change in polymorphic form during the micronization process” value ([3]; powder X-ray diffraction before and after micronization) was “No change”.
